Where a name gives a salt, the structure may show the parent alone.
Tests used:
[1] = system: MCF-7 (estrogen receptor positive) human breast cancer cell line; assay: Cell cycle phase distribution by flow cytometric DNA analysis in MCF-7 cells; type: cell-based; details: for shift of cells from the resting G1 phase to the proliferative S phase (estrogenic activity): compound alone, 0.1 μM; for prevention of E2 induced proliferation (shift from G1 to S phase): in combination with E2; for % G1 / % G2/M / % S: 24 hours
Experimental: (§1) In the in vitro standard pharmacological test procedure, 17α-dihydroequilin was evaluated as a representative compound in MCF-7 (estrogen receptor positive) and […] (estrogen receptor negative) human breast cancer cell lines to determine the effect of the compounds of this invention on cell proliferation as measured by the percent of the cells present in the G1, S, and G2/M phases of the cell cycle. Briefly, the cell lines were plated in T-25 tissue culture flasks at an initial density of between 50,000 and 100,000 cells/flask and incubated for a period of 24 hours in phenol-red free IMEM medium supplemented with dextran-coated-charcoal stripped fetal bovine serum (10%), glutamine (5 mg/mL) and gentamycin sulfate (2 mg/mL).

[2] = system: MDA-231 (estrogen receptor negative) human breast cancer cell line; assay: Cell cycle phase distribution by flow cytometric DNA analysis in MDA-231 cells; type: cell-based; details: for % G1 / % G2/M / % S: 24 hours
Experimental: as §1

[3] = system: DMBA induced mammary carcinoma; assay: DMBA induced mammary carcinoma in rats, tumor size; type: in vivo, Sprague-Dawley female rats; details: rat
Experimental: Rats were treated either with vehicle (control), 17α-dihydroequilin sulfate, or tamoxifen. In addition, one group of rats were ovariectomized after tumor development and then treated with vehicle. The animals were treated for a 4 week period. Tumor volumes were measured weekly.

[4] = system: estrogen receptor positive MCF-7 human breast cancer cells; details: prevents cells from entering the S phase; cited from earlier work
[5] = rat; 200 μg/day for 3 weeks; cited from earlier work
[6] = test compound (0.1 nM) in combination with E2 (1 nM)

## C[C@]12CC[C@H]3C(=CCc4cc(O)ccc43)[C@@H]1CC[C@H]2O [17α-dihydroequilin]
[1]
  shift of cells from the resting G1 phase to the proliferative S phase (estrogenic activity): did not cause a shift of cells from the resting G1 phase to the proliferative S phase
  prevention of E2 induced proliferation (shift from G1 to S phase): prevented the E2 induced proliferation
[1]; [6]
  % G1: 42%
  % G2/M: 15%
  % S: 42%
[2]; [6]
  % G1: 26%
  % G2/M: 13%
  % S: 60%

## CC/C(=C(\c1ccccc1)c1ccc(OCCN(C)C)cc1)c1ccccc1 [Tamoxifen, Z-1-(4β-dimethylaminoethoxyphenyl) 1,2-diphenyl but-1-ene citratel]
[1]
  shift of cells from the resting G1 phase to the proliferative S phase (estrogenic activity): A similar result was observed
  prevention of E2 induced proliferation (shift from G1 to S phase): A similar result was obtained
[1]; [6]
  % G1: 40%
  % G2/M: 14%
  % S: 46%
[2]; [6]
  % G1: 28%
  % G2/M: 14%
  % S: 58%
[3]; 4 week treatment
  reduction in tumor size (in words): caused a reduction in tumor size
[3]; daily dose 2.0 mg/kg
  percent change of tumor size from week 0, Week 2: −18.7%
  percent change of tumor size from week 0, Week 3: −28.5%
  percent change of tumor size from week 0, Week 4: −20.1%
[4]
  inhibition of E2 stimulated cell growth: inhibit cell E2 stimulated cell growth
[5]
  accumulation of administered [3H]-E2 in tissue: prevents the accumulation of administered [^3H]-E2 in uterine, vaginal, and mammary tumor tissue

## C[C@]12CC[C@H]3C(=CCc4cc(OS(=O)(=O)O)ccc43)[C@@H]1CC[C@H]2O [17α-DHEQ-S, 17α-Dihydroequilin sulfate]
[3]; daily dose 0.5 mg/kg
  percent change of tumor size from week 0, Week 1: 47.2%
  percent change of tumor size from week 0, Week 2: 75.9%
  percent change of tumor size from week 0, Week 3: 59.4%
  percent change of tumor size from week 0, Week 4: 111.6%
[3]; daily dose 5.0 mg/kg
  percent change of tumor size from week 0, Week 1: −18.2%
  percent change of tumor size from week 0, Week 2: −21.2%
  percent change of tumor size from week 0, Week 3: −8.2%
  percent change of tumor size from week 0, Week 4: 3.1%
[3]; daily dose 25.0 mg/kg
  percent change of tumor size from week 0, Week 1: −49.7%
  percent change of tumor size from week 0, Week 3: −51.2%
  percent change of tumor size from week 0, Week 4: −46.7%

## C[C@]12CC[C@@H]3c4ccc(O)cc4CC[C@H]3[C@@H]1CC[C@@H]2O [E2, 17β-estradiol]
[1]; E2 alone
  shift of cells from the G1 phase to the S phase (cell proliferation): caused cell proliferation
  % G1: 29%
  % G2/M: 5%
  % S: 66%
[2]; E2 alone
  shift of cells from the G1 phase to the S phase (cell proliferation): this shift was not observed
  % G1: 38%
  % G2/M: 17%
  % S: 45%

Source: patent publication US7005429B2, “Method of treating estrogen receptor positive carcinoma with 17 α-dihydroequilin” (Wyeth, priority 1991, dated 2006)
